Reference: patent US9474790B2, “Stable, protracted GLP-1/glucagon receptor co-agonists for medical use” (Novo Nordisk A/S, priority 2013, dated 2016)
Numbered stars: 1 amine (or outer) side, 2 acyl side, 3 side chain; on linkers, the order of the positions; unused ones are H or OH. Bridge positions count the residues as written; N and C are the ends. Square brackets hold non-standard residues; d marks the D form. Side chains are listed from the residue outwards. Peptide text beside a SMILES is read from it. I, II: the chains in the order shown. * marks the point of attachment. C18 diacid = O=C(O)CCCCCCCCCCCCCCCCC(=O)*; γGlu = O=C(O)[C@H](CCC(=O)[*:2])N[*:1]; Ac4c = NC1(C(=O)O)CCC1; AEEA = NCCOCCOCC(=O)O; Aib = CC(C)(N)C(=O)O

Target: T1, human glucagon receptor (Homo sapiens, UniProt P47871)
T1 construct: expressed in transfected cells; host or cells: BHK cells (parent BHK570, CRE luciferase clone BHK/KZ10-20-48), clone pLJ6'-4-25
T1 sequence (P47871 26-477): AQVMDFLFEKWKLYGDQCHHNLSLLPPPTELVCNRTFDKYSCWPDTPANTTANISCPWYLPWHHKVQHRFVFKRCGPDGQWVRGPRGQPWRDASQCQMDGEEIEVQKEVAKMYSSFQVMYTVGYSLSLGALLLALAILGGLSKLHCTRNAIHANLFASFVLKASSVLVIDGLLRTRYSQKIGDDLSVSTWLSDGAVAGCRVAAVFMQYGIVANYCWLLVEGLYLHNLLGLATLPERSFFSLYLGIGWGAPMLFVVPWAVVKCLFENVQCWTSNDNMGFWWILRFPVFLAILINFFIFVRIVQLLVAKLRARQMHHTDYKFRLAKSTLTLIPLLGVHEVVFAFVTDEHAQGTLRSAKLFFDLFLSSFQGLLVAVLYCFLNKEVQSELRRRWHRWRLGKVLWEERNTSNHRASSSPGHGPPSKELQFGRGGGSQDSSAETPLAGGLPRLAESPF
Test: Glucagon receptor binding, 125I-glucagon displacement SPA on isolated membranes
Conditions: displacement of 125I-glucagon from membranes; read-out: IC50 GlucR
Outline: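 Displacement IC50 derived by non-linear regression of SPA counts after 2 h, 25 °C incubation of compound with [125I]-glucagon (480 pM solution, 25 μl) and membranes of hGCGR-transfected BHK cells. Buffer was HEPES pH 7.4 with ovalbumin; serum albumin was held at 0.001% max or 0.2% final.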

| IC50 [nM] | SMILES |
| --- | --- |
| 0.6 | CC(C)C[C@H](NC(=O)[C@H](Cc1ccc(O)cc1)NC(=O)[C@H](CCCCN)NC(=O)[C@H](CO)NC(=O)[C@H](CC(C)C)NC(=O)[C@H](CC(=O)O)NC(=O)[C@H](CO)NC(=O)[C@@H](NC(=O)[C@H](Cc1ccccc1)NC(=O)[C@@H](NC(=O)CNC(=O)[C@H](CCC(N)=O)NC(=O)C1(NC(=O)[C@@H](N)Cc2c[nH]cn2)CCC1)[C@@H](C)O)[C@@H](C)O)C(=O)N[C@@H](CCC(=O)O)C(=O)N[C@@H](CO)C(=O)N[C@@H](CCCCN)C(=O)N[C@@H](CCCNC(=N)N)C(=O)N[C@@H](C)C(=O)N[C@@H](CCCNC(=N)N)C(=O)N[C@@H](CCC(=O)O)C(=O)N[C@@H](Cc1ccccc1)C(=O)N[C@H](C(=O)N[C@@H](CCC(N)=O)C(=O)N[C@@H](Cc1c[nH]c2ccccc12)C(=O)N[C@@H](CC(C)C)C(=O)N[C@@H](CC(C)C)C(=O)N[C@@H](CCCCNC(=O)CNC(=O)[C@H](CO)NC(=O)[C@H](CCC(=O)O)NC(=O)CNC(=O)[C@H](CO)NC(=O)CC[C@H](NC(=O)CC[C@H](NC(=O)CCCCCCCCCCCCCCCCC(=O)O)C(=O)O)C(=O)O)C(=O)N[C@H](C(N)=O)[C@@H](C)O)C(C)C [Example 36, N^ε28-[2-[[(2S)-2-[[(2S)-4-carboxy-2-[[2-[[(2S)-2-[[(4S)-4-carboxy-4-[[(4S)-4-carboxy-4-(17-carboxyheptadecanoylamino)butanoyl]amino]butanoyl]amino]-3-hydroxypropanoyl]amino]acetyl]amino]butanoyl]amino]-3-hydroxypropanoyl]amino]acetyl]-[Acb2,Leu10,Glu15,Lys17, Arg20,Glu21,Leu27,Lys28]-Glucagon amide] (I: H-H[Ac4c]QGTFTSDLSKYLESKRAREFVQWLLKT-NH2 / II: {C18 diacid-γGlu-γGlu}-SGESG; amide I:28-II:C; N-terminus assumed) |
| 5.6 | CC(C)C[C@H](NC(=O)[C@H](Cc1ccc(O)cc1)NC(=O)[C@H](CCCCN)NC(=O)[C@H](CO)NC(=O)[C@H](CC(C)C)NC(=O)[C@H](CC(=O)O)NC(=O)[C@H](CO)NC(=O)[C@@H](NC(=O)[C@H](Cc1ccccc1)NC(=O)[C@@H](NC(=O)CNC(=O)[C@H](CCC(N)=O)NC(=O)C(C)(C)NC(=O)[C@@H](N)Cc1c[nH]cn1)[C@@H](C)O)[C@@H](C)O)C(=O)N[C@@H](CC(=O)O)C(=O)N[C@@H](C)C(=O)N[C@@H](CCCNC(=N)N)C(=O)N[C@@H](CCCNC(=N)N)C(=O)N[C@@H](C)C(=O)N[C@@H](CCCNC(=N)N)C(=O)N[C@@H](CCC(=O)O)C(=O)N[C@@H](Cc1ccccc1)C(=O)N[C@H](C(=O)N[C@@H](CCC(N)=O)C(=O)N[C@@H](Cc1c[nH]c2ccccc12)C(=O)N[C@@H](CC(C)C)C(=O)N[C@@H](CC(C)C)C(=O)N[C@@H](CC(N)=O)C(=O)N[C@@H](CCCCNC(=O)CC[C@H](NC(=O)CC[C@H](NC(=O)COCCOCCNC(=O)CC[C@H](NC(=O)CCCCCCCCCCCCCCCCC(=O)O)C(=O)O)C(=O)O)C(=O)O)C(N)=O)C(C)C [Example 39, N^ε29-[(4S)-4-carboxy-4-[[(4S)-4-carboxy-4-[[2-[2-[2-[[(4S)-4-carboxy-4-(17-carboxyheptadecanoylamino)butanoyl]amino]ethoxy]ethoxy]acetyl]amino]butanoyl]amino]butanoyl]-[Aib2,Leu10,Ala16,Arg20,Glu21,Leu27,Lys29]-Glucagon amide] (H-H[Aib]QGTFTSDLSKYLDARRAREFVQWLLNK([γGlu-γGlu-AEEA-γGlu-C18 diacid])-NH2; N-terminus assumed) |
